Test [1] concerns the target T1, glycine binding site of the NMDA receptor channel (Rattus norvegicus, UniProt P35439).
T1 construct: from tissue; host or cells: rat brain cortex and hippocampus membrane homogenate
The experiment in a line: Receptor binding, displacement of (3H)-MDL 105.519 on rat cerebral membrane homogenates. The note with it: 1 nmol/l (3H)-MDL 105.519.

A further test concerns AMPA receptor channels. The experiment in a line: AMPA-induced ionic currents in RNA-injected Xenopus oocytes. The note with it: 10 μmol/l compound; AMPA 100 μmol/l; n = 2. Type of test: cell-based, rat. As for the experimental part: Xenopus oocytes from stages V and VI (Dumont, J. N., Journal of Morphology, Vol. 136, 1972) were micro-injected with total RNA from brain tissue of adult rats (100-130 ng/cell) and kept in the culture medium (composition in mmol/l: 88.0 NaCl, 1.0 KCl, 1.5 CaCl2, 0.8 MgSO4, 2.4 NaHCO3, 5 HEPES, 100 IU/ml penicillin, 100 μg/ml streptomycin, pH 7.4) for up to 10 days at 20° C. Transmembranous ionic currents were recorded as in conventional two-electrode voltage clamp technology with a holding potential of −70 mV (P. Bloms-Funke P, M. Madeja, U. Muβhoff, E.-J. Speckman, Neuroscience Letters, Vol. 205, p. 115, 1996). The OTC interface and the Cellworks Software were used for recording data and controlling the test apparatus (npi, FRG). […] To test the effects of substances brought about via the glycine B-binding site of the NMDA receptor channel, the glycine dosage/response curve was recorded with and without the respective compound according to the invention. […] The data was analyzed using Igor-Pro software (Version 3.1, WaveMetrics USA). […] The significance for unpaired measured quantities is determined by the Mann-Whitney U-Test and for paired measured quantities by the Wilcoxon test (Sysstat. SPSS Inc., USA). EC50 values are calculated according to the following formula: […]

Here are results for one compound from patent publication US6699877B2 (Gruenenthal GmbH, priority 2000, dated 2004).

`O=C(O)C1Nc2cc(Cl)cc(Cl)c2C2C=CCC12` (stereo not drawn) [Example 2, 7,9-dichloro-3a,4,5,9b-tetrahydro-3H-cyclopenta[c]quinoline-4-carboxylic Acid]: the inhibition at 10 µM in test [1] (10 μmol/l test substance, read-out: Displacement (%, 10 μmol/l) of radioactive ligand from specific binding) is 100%. Moreover, the affinity in test [1] (mean from three independent experiments, from IC50 by Cheng-Prussoff equation), expressed as Ki, was 300 nM. Moreover, in the test with AMPA receptor channels, the “AMPA-induced ionic currents Inhibition with 10 μmol/l of compounds according to the invention” value was 5.4% (n = 2).
